One assay deals with SW620 cells. The assay is described as follows: SW620 CTG Assay (CellTiter-Glo cell viability, 72 h). The class given is cell-based. The conditions noted are these: Homo sapiens, SW-620, third value of cell, read-out: G12D/C/V Cell Proliferation CTG (72 h) SW620. As for the experimental part: (§1) AsPC-1 and SW620 CTG Assay Protocols
AsPC-1 (human pancreatic adenocarcinoma; ATCC CRL-1682) or SW620 (human colon adenocarcinoma; ATCC CCL-227) cells were cultured in RPMI 1640 medium containing 10% fetal bovine serum and 1× penicillin/streptomycin/L-glutamine. Cells were seeded in 384-well plates at a density of 3.33E+04 cells/mL and incubated at 37° C., 5% CO2, overnight. Serially-diluted compound or DMSO was added to the cells, and plates were incubated at 37° C., 5% CO2 for 72 h. Cell viability was measured using a CellTiter-Glo® Luminescent Cell Viability Assay kit (Promega) according to the manufacturer's protocol. The luminescence signal of treated samples was normalized to DMSO control, and data were analyzed using a 4-parameter logistic model to calculate IC50 values.
(In general: ATP-based viability assays read luminescence as a measure of living cells.)

In another assay the test system is AsPC-1 cells. Description: AsPC-1 CTG Assay (CellTiter-Glo cell viability, 72 h). The class given is cell-based, human. As to conditions: Homo sapiens, ASPC1, 72 h, AsPC-1 cells, 72 h; first value of cell; read-out: G12D/C/V Cell Proliferation CTG (72 h) AsPC-1. As for the experimental part: as §1
(§2) Serially-diluted compound or DMSO was added to the cells, and plates were incubated at 37° C., 5% CO2 for 72 h. Cell viability was measured using a CellTiter-Glo® Luminescent Cell Viability Assay kit (Promega) according to the manufacturer's protocol. The luminescence signal of treated samples was normalized to DMSO control, and data were analyzed using a 4-parameter logistic model to calculate IC50 values.

For assay [1], the system named is Phosphorylation of ERK1/2 in AsPC-1 cells. Description: Phospho-ERK1/2 MSD Assay. It is filed as cell-based, human. As to conditions: Homo sapiens, ASPC1, 2 h, AsPC-1 cells, 2 h compound treatment; read-out: 2 h p-ERK (AsPC-1 cells), IC50.
A further assay concerns MIA PaCa-2 cells. Description: MIA PaCa-2 CTG Assay (CellTiter-Glo cell viability, 72 h). The class given is cell-based, human. As to conditions: Homo sapiens, second value of cell, read-out: G12D/C/V Cell Proliferation CTG (72 h) Mia PaCa-2. How it is done:
MIA PaCa-2 CTG Assay Protocol
as §2

As to `Fc1c2ncc3c(nc(OC[C@@]45CCCN4C[C@H](F)C5)nc13)N1CCC[C@]3(C1)C[C@H](C3)OCCCCc1c(Cl)cc3[nH]ncc3c1-2` [Example 260, (1S,3R)-10-Chloro-32-fluoro-24-(((2R,7aS)-2-fluorotetrahydro-1H-pyrrolo[1,2-a]pyrrol-7a(5H)-yl)methoxy)-4-oxa-13,14,19,23,25,27-hexaazaheptacyclo[25.3.1.1˜1,3˜.1˜18,22˜.0˜9,17˜.0˜12,16˜.0˜21,26˜]tritriaconta-9,11,14,16,18(32),19,21,23,25-nonaene bis(2,2,2-trifluoroacetate)], the IC50 was determined as 8 nM with SW620 cells, 40 nM with AsPC-1 cells, 3.2 nM in assay [1] and 26 nM in the assay with MIA PaCa-2 cells.

(Values after US20260174769A1, “MACROCYCLIC COMPOUNDS AND METHODS OF USE” (AMGEN INC., priority 2022, published 2026).)
